Measurements as given in patent US20070225344A1, “Sulfonamide derivatives to treat infection with hepatitis C virus” (priority 2006, published 2007).

Biological target: T1, HCV RdRp NS5B d21BK (BK strain, 1b subtype) (Hepatitis C virus genotype 1b, UniProt P26663)
T1 construct: NS5B from the BK strain (1b subtype) is expressed in E. coli as a protein in which the 21 C-terminal amino acids are replaced; made in house; host or cells: E. coli
T1 sequence (P26663 2420-2997, looked up, natural form): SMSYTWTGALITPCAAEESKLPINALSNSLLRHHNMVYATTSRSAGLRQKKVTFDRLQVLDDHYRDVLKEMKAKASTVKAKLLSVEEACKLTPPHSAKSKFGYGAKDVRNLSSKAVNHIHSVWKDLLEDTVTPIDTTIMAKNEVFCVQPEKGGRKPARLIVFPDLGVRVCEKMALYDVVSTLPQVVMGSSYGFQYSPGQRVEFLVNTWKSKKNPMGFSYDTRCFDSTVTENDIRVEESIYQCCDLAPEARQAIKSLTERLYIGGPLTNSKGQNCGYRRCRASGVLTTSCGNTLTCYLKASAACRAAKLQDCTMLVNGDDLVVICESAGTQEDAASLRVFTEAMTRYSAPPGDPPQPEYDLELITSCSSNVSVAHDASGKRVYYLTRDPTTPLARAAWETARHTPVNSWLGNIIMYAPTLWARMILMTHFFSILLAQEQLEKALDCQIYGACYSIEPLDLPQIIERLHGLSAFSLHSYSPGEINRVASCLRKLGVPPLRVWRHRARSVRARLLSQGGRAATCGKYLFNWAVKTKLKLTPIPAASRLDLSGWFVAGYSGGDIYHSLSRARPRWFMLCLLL
Assay: HCV polymerase (NS5B) RNA-dependent RNA polymerase inhibition, 33P-GTP filter assay
Type: biochemical
Conditions: in vitro; NS5B BK strain (1b subtype), 24 nM enzyme, 2 h at room temperature; read-out: HCV Polymerase Median IC50
Source text: The ability of the compounds of the present invention to inhibit hepatitis C polymerase was established by the following experimental procedure:
NS5B from the BK strain (1b subtype) is expressed in E. coli as a protein in which the 21 C-terminal amino acids are replaced with a short linker and a hexahistidine tag (GSHHHHHH). The purified protein is mixed with radioactive nucleotides and allowed to replicate a heteropolymeric RNA substrate, primed by an endogenous short hairpin, resulting in an approximately 760 nt product. The radioactive product is captured on a filter and quantitated after removal of the unincorporated nucleotides.
(1) Compounds 10 μl at 10 μg/ml in 15% DMSO
Add 20 μl enzyme mix into each well of the assay plate. Incubate compound and enzyme at room temperature for 15 minutes.
(3) Template Mix—Prepare Ahead.
Spin down a tube of RNA (5 μg/tube stored in 75% ethanol and 0.3 M sodium acetate) in a microcentrifuge for 20 min. at 4° C. One tube is enough for 1 to 1½ plates. Remove as much ethanol from the tube as possible by inverting the tube. Be gentle, pellet RNA may not adhere to the tube. Vacuum dry the RNA. Resuspend the RNA by adding 1 ml of DEPC water, close the cap of the tube tightly. To dissolve RNA, incubate RNA solution on ice for ˜60 min. and gently vortex. Spin briefly to ensure all RNA solution is down to the bottom of the tube before opening cap. Gently transfer RNA solution into a 5 ml or larger tube. Add another 3 ml of DEPC water (total 4 ml of volume).
Add the following volumes of reagents.
Add 20 μl template mix per reaction (i.e. 20 ng of POF per reaction or ˜3 nM)
(4) Incubate reaction at room temperature (22-25° C.) for 2 hours.
(5) Stop reaction by adding 50 μl of 170 mM EDTA.
Final concentration of EDTA is 85 mM.
(6) Prewet filters of Millipore Multiscreen filter plate by adding 200 μl of 0.5 M sodium phosphate buffer, pH 7.0 into each well. Let stand at room temperature for 2-3 min.
(7) Place the Multiscreen filter plate onto a Millipore Manifold and turn on vacuum to allow buffer to flow through. Turn off vacuum. Transfer 80 μl of the reaction product into each well of the filter plate. Let stand for 2-3 min. Turn on vacuum to filter reaction product.
(8) Turn off vacuum. Add 200 μl of 0.5 M sodium phosphate buffer, pH 7.0 into each well to wash filter. Turn on vacuum.
Repeat step (8) three more times.
(9) Remove polypropylene bottom. Spot dry filter at the bottom with paper towel. Air dry filter plate on a bench for 1 hr. Add 40 μl Super Mix scintillant. Seal top of the plate with a tape. Place plate into a Packard carrier or MicroBeta carrier.
(10) Count plate using a Packard Topcount or MicroBeta counter. Program 10 for ^33P in Top count or ^33P program in micro-beta.
Percent inhibition is calculated after background subtraction as a percent reduction of activity relative to the positive control (average value of the plate excluding the negative controls).
Work on `O=C(O)[C@@H]1CCCCN1S(=O)(=O)c1cc(Cl)cc(Br)c1O` [Example 39, (2S)-1-[(3-bromo-5-chloro-2-hydroxyphenyl)sulfonyl]piperidine-2-carboxylic acid] yielded an IC50 of 0.45 µM. `O=C(O)[C@H]1CCCN1S(=O)(=O)c1cc(Cl)c(Cl)c(Cl)c1O` [Example 13, 1-[(3,4,5-trichloro-2-hydroxyphenyl)sulfonyl]-D-proline] showed an IC50 of 1.17 µM. `CO[C@@H]1C[C@@H](C(=O)O)N(S(=O)(=O)c2cc(Cl)cc(Cl)c2O)C1` [Example 12, (4R)-1-[(3,5-dichloro-2-hydroxyphenyl)sulfonyl]-4-methoxy-L-proline] showed an IC50 of 0.91 µM. `O=C(O)[C@@H]1C[C@@H](O)CN1S(=O)(=O)c1cc(Br)cc(Br)c1O` [Example 6, (4R)-1-[(3,5-dibromo-2-hydroxyphenyl)sulfonyl]-4-hydroxy-L-proline] showed an IC50 of 0.46 µM. For `Cc1cc(N)c(S(=O)(=O)N2CSC[C@@H]2C(=O)O)cc1Cl` [Example 53, (4S)-3-[(2-amino-5-chloro-4-methylphenyl)sulfonyl]-1,3-thiazolidine-4-carboxylic acid], the IC50 was 3.05 µM. With `Cc1cc(N)c(S(=O)(=O)N2C[C@H](O)C[C@H]2C(=O)O)cc1Cl` [Example 25, (4R)1-[(2-amino-5-chloro-4-methylphenyl)sulfonyl]-4-hydroxy-L-proline] the IC50 was 7.65 µM. With `O=S(=O)(c1cc(Cl)cc(Cl)c1O)N1CCSC1` [Example 52, 2,4-dichloro-6-(1,3-thiazolidin-3-ylsulfonyl)phenol] the IC50 was 2.35 µM. In the case of `O=C(O)[C@@H]1CCCCN1S(=O)(=O)c1cc(Cl)c(Cl)c(Cl)c1O` [Example 37, (2S)-1-[(3,4,5-trichloro-2-hydroxyphenyl)sulfonyl]piperidine-2-carboxylic acid], the IC50 is reported as 0.08 µM. With `Cc1ccc(S(=O)(=O)N2CCC[C@H]2C(=O)O)cc1Cl` [Example 35, 1-[(3-chloro-4-methylphenyl)sulfonyl]-L-proline] the IC50 was 10.2 µM. Compound `O=C(O)[C@H]1CSCN1S(=O)(=O)c1cc(Cl)cc(Br)c1O` [Example 50, (4S)-3-[(3-bromo-5-chloro-2-hydroxyphenyl)sulfonyl]-1,3-thiazolidine-4-carboxylic acid] has an IC50 of 0.87 µM. With `O=C(O)[C@@H]1CSCN1S(=O)(=O)c1cc(Cl)c(Cl)c(Cl)c1O` [Example 45, (4R)-3-[(3,4,5-trichloro-2-hydroxyphenyl)sulfonyl]-1,3-thiazolidine-4-carboxylic acid] the IC50 was 0.05 µM. Work on `O=C(O)[C@@H]1CCCN1S(=O)(=O)c1cc(Cl)cc(Cl)c1O` [Example 11, 1-[(3,5-dichloro-2-hydroxyphenyl)sulfonyl]-L-proline] yielded an IC50 of 0.89 µM. `Cc1cc(S(=O)(=O)N2C[C@@H](O)C[C@@H]2C(=O)O)c(N)cc1Cl` [Example 24, (4S)-1-[(2-amino-4-chloro-5-methylphenyl)sulfonyl]-4-hydroxy-D-proline] showed an IC50 of 5.1 µM. In the case of `Cc1cc(S(=O)(=O)N2CSC[C@H]2C(=O)O)c(N)cc1Cl` [Example 54, (4R)-3-[(2-amino-4-chloro-5-methylphenyl)sulfonyl]-1,3-thiazolidine-4-carboxylic acid], the IC50 is reported as 4.75 µM. In the case of `Cc1cc(NC(=O)c2ccccc2)c(S(=O)(=O)N2CCC[C@H]2C(=O)O)cc1Cl` [Example 34, 1-{[2-(benzoylamino)-5-chloro-4-methylphenyl]sulfonyl}-L-proline], the IC50 is reported as 10.1 µM. For `O=C(O)[C@@H]1CCCN1S(=O)(=O)c1cc(Cl)c(Cl)c(Cl)c1O` [Example 4, 1-[(3,4,5-trichloro-2-hydroxyphenyl)sulfonyl]-L-proline], the IC50 was 0.08 µM. `O=C(O)[C@@H]1C[C@@H](O)CN1S(=O)(=O)c1cc(F)cc(Cl)c1O` [Example 18, (4R)-1-[(3-chloro-5-fluoro-2-hydroxyphenyl)sulfonyl]-4-hydroxy-L-proline] gave an IC50 of 3.28 µM. Work on `Cc1cc(NC(=O)c2cccs2)c(S(=O)(=O)N2CCC[C@H]2C(=O)O)cc1Cl` [Example 26, 1-({5-chloro-4-methyl-2-[(2-thienylcarbonyl)amino]phenyl}sulfonyl)-L-proline] yielded an IC50 of 6.87 µM. In the case of `O=C(O)[C@H]1CSCN1S(=O)(=O)c1cc(F)cc(Cl)c1O` [Example 57, (4S)-3-[(3-chloro-5-fluoro-2-hydroxyphenyl)sulfonyl]-1,3-thiazolidine-4-carboxylic acid], the IC50 is reported as 14.4 µM. For `O=C(O)[C@@H]1C[C@@H](O)CN1S(=O)(=O)c1cc(Cl)cc(Br)c1O` [Example 7, (4R)-1-[(3-bromo-5-chloro-2-hydroxyphenyl)sulfonyl]-4-hydroxy-L-proline], the IC50 was 0.47 µM. Compound `O=C(O)[C@@H]1CCCN1S(=O)(=O)c1cc(Cl)c(Cl)cc1Cl` [Example 36, 1-[(2,4,5-trichlorophenyl)sulfonyl]-L-proline] has an IC50 of 21.9 µM. `Cc1cc(N)c(S(=O)(=O)N2CCC[C@@H]2C(=O)O)cc1Cl` [Example 17, 1-[(2-amino-5-chloro-4-methylphenyl)sulfonyl]-D-proline] gave an IC50 of 4.7 µM. With `O=C(O)[C@H]1C[C@H](O)CN1S(=O)(=O)c1cc(Cl)c(Cl)c(Cl)c1O` [Example 15, (4S)-4-hydroxy-1-[(3,4,5-trichloro-2-hydroxyphenyl)sulfonyl]-D-proline] the IC50 was 1.22 µM. With `O=C(O)[C@H]1CCCN1S(=O)(=O)c1cc(Br)cc(Br)c1O` [Example 27, 1-[(3,5-dibromo-2-hydroxyphenyl)sulfonyl]-D-proline] the IC50 was 7 µM. Work on `O=S(=O)(c1cc(Cl)cc(Cl)c1O)N1CCCC1` [Example 23, 2,4-dichloro-6-(pyrrolidin-1-ylsulfonyl)phenol] yielded an IC50 of 4.85 µM.

Tested on: not given
Assay: not given
Conditions: not given
Work on `O=C(O)[C@@H]1CCCN1S(=O)(=O)c1cc(Cl)cc(Cl)c1O` [Example 11, 1-[(3,5-dichloro-2-hydroxyphenyl)sulfonyl]-L-proline] yielded a melting point of 107.4 °C.
